Measured values reported in publication PMC4109617, “The functionalized amino acid (S)-Lacosamide subverts CRMP2-mediated tubulin polymerization to prevent constitutive and activity-dependent increase in neurite outgrowth” (Frontiers in Cellular Neuroscience, 2014).

Molecular target: T1, CRMP2 (collapsin response mediator protein 2) (Rattus norvegicus, UniProt P47942)
T1 construct: gene Dpysl2; purified recombinant wild-type CRMP2 (GST construct), NT647-labeled
Experiment: microscale thermophoresis (MST), Hill fit
Format: binding

COC[C@H](NC(C)=O)C(=O)NCc1ccccc1 [(S)-LCM, (S)-lacosamide]
Kd: 1500 ± 10 nM
